Laboratory results reported in patent US12187681B2 (Shanghai East Hospital, priority 2019, dated 2025).

Assays:
Assay type in all cases: cell-based
[1] = biological target: T1, CaV1.2 (L-type voltage-dependent calcium channel; CACNA1C, CACNB2, CACNA2D1) (Homo sapiens, UniProt Q13936); assay: CaV1.2 channel whole-cell patch clamp (Ion Channel Activity Measurement); details: human, room temperature; for inhibition at 5 min, 1 μM: pH 7.4, 1 μM test article; for inhibition at 5 min, 10 μM: pH 7.4, 10 μM test article, read-out: CaV 1.2 10 μM (ion-channel inhibition)
T1 construct: expressed in transfected cells; host or cells: CHO
Procedure, shortened: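 Whole-cell patch clamp was run on CHO cells stably expressing CACNA1C/CACNB2/CACNA2D1 at 23–25 °C, with 10 mM CaCl2 TEA bath (pH 7.4) and CsCl pipette solution (pH 7.2). Currents were evoked from −80 mV to +10 mV for 0.3 s every 20 s without leak subtraction. Ascending concentrations were each applied for 5 min or until steady state.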

[2] = biological target: T2, hERG (human ether-a-go-go related gene potassium channel, KCNH2) (Homo sapiens, UniProt Q12809); assay: hERG channel whole-cell patch clamp (Ion Channel Activity Measurement); details: human, room temperature; for inhibition at 1 μM: pH 7.4, 1 μM test article; for inhibition at 10 μM: pH 7.4, 10 μM test article
T2 construct: expressed in transfected cells; host or cells: HEK293
Procedure, shortened: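 HEK293 cells stably expressing hERG (NM_000238) were recorded by whole-cell patch clamp at 23-25° C. Holding potential −80 mV, step to 30 mV for 2.5 s, tail currents at −50 mV for 4 s, pulses every 10 s. Each concentration was perfused low to high for 5 min or to steady state, with each cell as its own control.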

[3] = biological target: T3, Iks potassium channel (KCNQ1/KCNE1) (Homo sapiens, UniProt P51787); assay: Iks channel whole-cell patch clamp (Ion Channel Activity Measurement); details: human, CHO cells stably expressing Iks channel (KCNQ1 and KCNE1), room temperature; for inhibition at 5 min, 1 μM: pH 7.4, 1 μM test article; for inhibition at 5 min, 10 μM: pH 7.4, 10 μM test article
T3 construct: expressed in transfected cells; host or cells: CHO
Experimental: CHO cell line stably expressing Iks potassium voltage-gated channel subfamily Q member 1(KCNQ1) and potassium voltage-gated channel subfamily E regulatory subunit 1 (KCNE1), cDNA strictly similar to GenBank accession number: NM_000218 and NM_000219
Cells expressing channels were cultured in medium supplemented with 20% FBS in HAM'S F12 culture dish. Cells grew in a humidified incubator at 37° C. under 5% carbon dioxide. To passage cells, remove poor medium and rinse the cells once with PBS 1X. […] Place plate on a 37° C. warming incubator 5 min. As soon as cells are detached, add 5 ml of 37° C. complete medium. Draw cell suspension into a sterile pipet and homogenize cells gently to dissociate cells aggregates. Amplify or maintain the cells by seeding 2.5*105 cells in a 6 cm dish (final volume: 5 ml). To maintain electrophysiological performances, cell density must not exceed 80%. On the day before patch clamp experiment, 3*103 cells were seeded on coverslips in the 24-well plate and incubated at 37° C. in 5% carbon dioxide.
Extracellular solution (mM): 140 NaCl, 2.5 KCl, 1 MgCl2, 2 CaCl2, 5 Glucose, 10 HEPES, pH=7.4 with NaOH.
Pipette solution (mM): 120 K-aspartic, 10 HEPES, 5 MgCl2, 5 EGTA, 4 Na2-ATP 0.3 Na2-GTP, 14 mM Phosphocreatine disodium salt, 20 u/mL Creatine phosphor kinse pH 7.2 with KOH
Glass pipette (BF150-86-10, Sutter Instruments) was made by puller (P97, Sutter Instruments). The glass pipette was manipulated using Micro-manipulator (Carm-C-S, MCI Instruments) under the microscope (AE31EF-INV, Motic). After touching the cell, a slight suction was applied to achieve high seal (GΩ). Fast capacitance (in pF) compensation was made after high seal was achieved; after achieving high seal, the membrane was broken, Cell capacitance (in pF) compensation was made from whole-cell capacitance compensation after the whole cell mode was achieved. No leak subtraction was made.
Cell was incubated with the test article for 5 minutes, or until the current reached a steady-state level. Multiple concentrations of test article were tested. The test articles were applied gradually from low to high concentration. The test and control solutions were flown into a recording chamber mounted on the stage of an inverted microscope via a gravity-fed solution delivery system. During the experiment, solutions were withdrawn from the recording chamber by vacuum aspiration. Each concentration was tested at multiple times. Each cell acted as its own control. All tests were performed at room temperature (23-25° C.).
IKs current was measured using a pulse protocol consisting of −80 mV holding potential increment up to +60 mV over a period of 5 seconds. And then quickly repolarizedat −40 mV and maintained for 4 seconds.

[4] = HEK293 cells expressing the human ERG potassium channel

T1 sequence (Q13936 1-2138 isoform Q13936-12): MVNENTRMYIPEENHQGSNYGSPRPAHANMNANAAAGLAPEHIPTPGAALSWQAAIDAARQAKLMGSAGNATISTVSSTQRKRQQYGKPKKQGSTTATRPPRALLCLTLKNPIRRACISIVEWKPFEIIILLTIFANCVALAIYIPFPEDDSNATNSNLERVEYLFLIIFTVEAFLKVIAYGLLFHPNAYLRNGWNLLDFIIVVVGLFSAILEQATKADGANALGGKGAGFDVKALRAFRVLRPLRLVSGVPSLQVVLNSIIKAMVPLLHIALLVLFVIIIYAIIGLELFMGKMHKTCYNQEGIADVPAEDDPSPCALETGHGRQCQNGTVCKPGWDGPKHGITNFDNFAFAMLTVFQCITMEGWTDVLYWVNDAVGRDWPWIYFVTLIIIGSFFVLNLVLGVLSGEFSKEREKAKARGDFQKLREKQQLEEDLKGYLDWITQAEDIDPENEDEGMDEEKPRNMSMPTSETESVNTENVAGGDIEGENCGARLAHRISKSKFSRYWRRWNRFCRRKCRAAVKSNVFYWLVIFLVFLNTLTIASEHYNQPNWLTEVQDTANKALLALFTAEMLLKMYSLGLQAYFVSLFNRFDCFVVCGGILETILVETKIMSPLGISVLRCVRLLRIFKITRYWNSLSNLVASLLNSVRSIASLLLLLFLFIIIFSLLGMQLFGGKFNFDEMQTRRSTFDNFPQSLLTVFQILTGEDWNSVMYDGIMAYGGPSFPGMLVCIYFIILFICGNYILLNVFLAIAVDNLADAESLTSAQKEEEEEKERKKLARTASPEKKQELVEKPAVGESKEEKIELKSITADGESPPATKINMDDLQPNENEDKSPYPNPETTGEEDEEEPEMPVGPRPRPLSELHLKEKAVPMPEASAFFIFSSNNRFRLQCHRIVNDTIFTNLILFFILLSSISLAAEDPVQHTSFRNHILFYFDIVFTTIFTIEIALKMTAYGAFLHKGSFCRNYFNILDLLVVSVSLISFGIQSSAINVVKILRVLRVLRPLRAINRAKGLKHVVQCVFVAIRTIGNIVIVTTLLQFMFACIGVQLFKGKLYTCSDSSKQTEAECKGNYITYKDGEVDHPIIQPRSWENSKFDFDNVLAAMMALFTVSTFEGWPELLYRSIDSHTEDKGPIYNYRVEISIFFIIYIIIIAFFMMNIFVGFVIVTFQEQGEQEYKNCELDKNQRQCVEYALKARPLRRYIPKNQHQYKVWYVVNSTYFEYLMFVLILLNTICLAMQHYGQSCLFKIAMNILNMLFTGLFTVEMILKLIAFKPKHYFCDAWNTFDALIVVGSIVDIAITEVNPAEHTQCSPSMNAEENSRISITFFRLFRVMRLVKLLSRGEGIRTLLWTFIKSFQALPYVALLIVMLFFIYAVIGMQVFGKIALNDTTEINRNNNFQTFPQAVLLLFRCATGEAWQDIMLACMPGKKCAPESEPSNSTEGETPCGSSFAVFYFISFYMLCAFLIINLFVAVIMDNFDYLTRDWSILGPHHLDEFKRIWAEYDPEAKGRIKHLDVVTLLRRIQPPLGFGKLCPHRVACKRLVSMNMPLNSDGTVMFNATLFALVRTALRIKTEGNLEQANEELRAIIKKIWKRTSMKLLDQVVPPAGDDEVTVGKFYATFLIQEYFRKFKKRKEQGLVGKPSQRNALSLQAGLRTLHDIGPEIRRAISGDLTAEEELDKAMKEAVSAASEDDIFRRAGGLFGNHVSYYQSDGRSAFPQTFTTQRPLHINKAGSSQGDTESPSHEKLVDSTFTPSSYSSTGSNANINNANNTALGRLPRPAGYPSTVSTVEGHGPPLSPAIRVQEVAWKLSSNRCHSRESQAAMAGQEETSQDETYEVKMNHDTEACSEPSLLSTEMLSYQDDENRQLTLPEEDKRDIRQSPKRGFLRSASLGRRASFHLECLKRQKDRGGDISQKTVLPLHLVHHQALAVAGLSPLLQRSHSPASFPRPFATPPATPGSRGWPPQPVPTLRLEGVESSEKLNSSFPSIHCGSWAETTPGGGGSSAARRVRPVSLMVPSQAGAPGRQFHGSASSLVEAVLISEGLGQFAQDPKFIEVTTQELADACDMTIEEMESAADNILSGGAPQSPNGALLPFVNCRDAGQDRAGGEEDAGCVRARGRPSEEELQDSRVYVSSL
T1 sequence (Q08289 1-605 isoform Q08289-2 partner): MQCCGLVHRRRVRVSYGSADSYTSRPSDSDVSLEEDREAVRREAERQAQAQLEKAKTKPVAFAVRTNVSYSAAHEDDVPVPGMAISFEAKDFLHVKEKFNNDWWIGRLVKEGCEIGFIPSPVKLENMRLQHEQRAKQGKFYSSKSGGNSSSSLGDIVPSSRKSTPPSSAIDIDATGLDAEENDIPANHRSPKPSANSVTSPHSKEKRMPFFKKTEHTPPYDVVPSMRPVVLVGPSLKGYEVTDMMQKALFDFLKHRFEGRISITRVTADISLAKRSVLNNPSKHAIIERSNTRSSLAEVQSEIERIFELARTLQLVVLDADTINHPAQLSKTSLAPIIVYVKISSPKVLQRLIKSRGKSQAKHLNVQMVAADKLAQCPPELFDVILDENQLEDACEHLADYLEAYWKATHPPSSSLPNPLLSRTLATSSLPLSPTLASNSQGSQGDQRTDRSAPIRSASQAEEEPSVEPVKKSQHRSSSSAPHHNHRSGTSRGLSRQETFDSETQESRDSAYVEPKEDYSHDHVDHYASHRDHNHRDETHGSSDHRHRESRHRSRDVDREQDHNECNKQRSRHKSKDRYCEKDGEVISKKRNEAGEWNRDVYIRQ
T1 sequence (P54289 25-1091 isoform P54289-2 partner limits assumed): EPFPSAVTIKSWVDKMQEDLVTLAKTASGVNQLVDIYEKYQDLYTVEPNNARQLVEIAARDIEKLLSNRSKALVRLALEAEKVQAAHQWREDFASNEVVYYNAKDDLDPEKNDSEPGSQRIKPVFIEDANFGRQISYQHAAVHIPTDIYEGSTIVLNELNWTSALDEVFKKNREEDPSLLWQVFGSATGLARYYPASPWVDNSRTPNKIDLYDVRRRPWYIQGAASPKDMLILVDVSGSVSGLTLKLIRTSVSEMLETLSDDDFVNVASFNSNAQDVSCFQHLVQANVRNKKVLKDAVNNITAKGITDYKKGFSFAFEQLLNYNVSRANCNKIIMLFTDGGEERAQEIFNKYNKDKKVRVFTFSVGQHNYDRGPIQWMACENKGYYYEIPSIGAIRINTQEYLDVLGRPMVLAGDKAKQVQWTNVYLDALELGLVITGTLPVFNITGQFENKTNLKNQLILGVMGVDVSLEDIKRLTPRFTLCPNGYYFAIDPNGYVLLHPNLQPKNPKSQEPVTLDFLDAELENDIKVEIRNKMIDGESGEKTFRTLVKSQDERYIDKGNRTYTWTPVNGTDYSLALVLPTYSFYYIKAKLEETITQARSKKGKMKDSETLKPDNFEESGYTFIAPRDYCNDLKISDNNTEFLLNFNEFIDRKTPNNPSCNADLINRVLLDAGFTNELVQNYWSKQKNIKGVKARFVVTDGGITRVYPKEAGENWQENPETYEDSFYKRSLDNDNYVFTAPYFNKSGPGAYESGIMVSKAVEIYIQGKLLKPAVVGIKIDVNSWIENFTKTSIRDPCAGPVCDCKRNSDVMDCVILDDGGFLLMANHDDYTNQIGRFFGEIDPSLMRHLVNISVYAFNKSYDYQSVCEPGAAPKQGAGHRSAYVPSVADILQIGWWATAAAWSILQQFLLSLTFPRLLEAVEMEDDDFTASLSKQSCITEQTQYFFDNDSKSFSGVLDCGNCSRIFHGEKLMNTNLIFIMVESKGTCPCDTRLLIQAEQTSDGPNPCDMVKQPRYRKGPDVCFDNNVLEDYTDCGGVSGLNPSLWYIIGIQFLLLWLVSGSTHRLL
T1 sequence (P54289 957-1103 partner limits assumed): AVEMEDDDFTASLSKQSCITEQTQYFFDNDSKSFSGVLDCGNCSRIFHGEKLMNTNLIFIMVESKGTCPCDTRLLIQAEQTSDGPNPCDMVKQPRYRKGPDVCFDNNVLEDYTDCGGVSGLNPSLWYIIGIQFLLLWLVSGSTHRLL
T2 sequence (Q12809 whole entry): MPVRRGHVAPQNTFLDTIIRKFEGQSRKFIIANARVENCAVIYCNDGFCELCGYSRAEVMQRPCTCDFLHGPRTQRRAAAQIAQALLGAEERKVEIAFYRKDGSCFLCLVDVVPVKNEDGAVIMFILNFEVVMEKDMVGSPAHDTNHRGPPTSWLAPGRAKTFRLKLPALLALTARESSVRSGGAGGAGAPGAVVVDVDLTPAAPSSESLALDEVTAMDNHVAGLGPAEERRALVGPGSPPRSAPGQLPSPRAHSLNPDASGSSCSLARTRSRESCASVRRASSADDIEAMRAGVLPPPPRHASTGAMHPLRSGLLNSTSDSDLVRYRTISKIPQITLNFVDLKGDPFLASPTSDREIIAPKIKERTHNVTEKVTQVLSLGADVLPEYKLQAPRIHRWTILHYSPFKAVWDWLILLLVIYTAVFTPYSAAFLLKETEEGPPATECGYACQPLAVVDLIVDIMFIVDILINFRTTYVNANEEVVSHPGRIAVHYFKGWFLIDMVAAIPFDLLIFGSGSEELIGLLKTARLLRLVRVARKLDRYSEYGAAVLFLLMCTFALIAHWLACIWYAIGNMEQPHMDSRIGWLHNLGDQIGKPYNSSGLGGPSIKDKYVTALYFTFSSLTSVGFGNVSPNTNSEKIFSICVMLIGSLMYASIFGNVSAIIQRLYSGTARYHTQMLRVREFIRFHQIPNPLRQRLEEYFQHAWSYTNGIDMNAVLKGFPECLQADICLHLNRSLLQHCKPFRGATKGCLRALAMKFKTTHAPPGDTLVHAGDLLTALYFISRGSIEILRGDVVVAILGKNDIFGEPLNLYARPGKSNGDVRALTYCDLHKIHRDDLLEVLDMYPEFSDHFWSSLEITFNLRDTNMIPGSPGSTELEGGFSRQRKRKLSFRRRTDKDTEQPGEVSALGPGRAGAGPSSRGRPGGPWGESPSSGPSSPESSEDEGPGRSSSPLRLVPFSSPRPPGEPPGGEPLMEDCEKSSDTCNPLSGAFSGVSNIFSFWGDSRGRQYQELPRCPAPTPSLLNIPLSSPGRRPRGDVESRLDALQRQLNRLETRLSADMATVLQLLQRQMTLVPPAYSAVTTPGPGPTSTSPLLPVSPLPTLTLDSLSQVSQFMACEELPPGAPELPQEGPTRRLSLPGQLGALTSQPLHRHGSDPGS

Structure (SMILES): Oc1ccc2ccccc2c1Cc1c(O)ccc2ccccc12 [Compound A001, 1,1′-methylenebis(naphthalen-2-ol)]
- inhibition at 5 min, 1 μM [1]: < 25%
- inhibition at 5 min, 10 μM [1]: 75 to 100%
- inhibition at 1 μM [2, 4]: < 25%
- inhibition at 10 μM [2, 4]: 75 to 100%
- inhibition at 5 min, 1 μM [3]: 50 to 75%
- inhibition at 5 min, 10 μM [3]: 75 to 100%

Structure (SMILES): CN(c1c(O)ccc2ccccc12)c1c(O)ccc2ccccc12 [Compound A003, 1,1′-(methylazanediyl)bis(naphthalen-2-ol)]
- inhibition at 5 min, 1 μM [1]: < 25%
- inhibition at 5 min, 10 μM [1]: 25 to 50%
- inhibition at 1 μM [2, 4]: 25 to 50%
- inhibition at 10 μM [2, 4]: 75 to 100%
- inhibition at 5 min, 1 μM [3]: 25 to 50%
- inhibition at 5 min, 10 μM [3]: 50 to 75%

Structure (SMILES): O=S(=O)(c1c(O)ccc2ccccc12)c1c(O)ccc2ccccc12 [Compound A005, 1,1′-sulfonylbis(naphthalen-2-ol)]
- inhibition at 5 min, 1 μM [3]: 25 to 50%
- inhibition at 5 min, 10 μM [3]: 25 to 50%

Structure (SMILES): [O-][S+](c1c(O)ccc2ccccc12)c1c(O)ccc2ccccc12 [Compound A006, 1,1′-sulfinylbis(naphthalen-2-ol)]
- inhibition at 5 min, 1 μM [1]: < 25%
- inhibition at 5 min, 10 μM [1]: < 25%
- inhibition at 1 μM [2, 4]: < 25%
- inhibition at 10 μM [2, 4]: < 25%
- inhibition at 5 min, 1 μM [3]: < 25%
- inhibition at 5 min, 10 μM [3]: 25 to 50%

Structure (SMILES): COc1ccc2ccccc2c1Cc1c(O)ccc2ccccc12 [Compound A014, 1-((2-methoxynaphthalen-1-yl)methyl)naphthalen-2-ol]
- inhibition at 5 min, 1 μM [1]: < 25%
- inhibition at 5 min, 10 μM [1]: 50 to 75%
- inhibition at 1 μM [2, 4]: < 25%
- inhibition at 10 μM [2, 4]: 75 to 100%
- inhibition at 5 min, 1 μM [3]: < 25%
- inhibition at 5 min, 10 μM [3]: < 25%

Structure (SMILES): COc1ccc2ccccc2c1Cc1c(OC)ccc2ccccc12 [Compound A015, bis(2-methoxynaphthalen-1-yl)methane]
- inhibition at 5 min, 1 μM [3]: < 25%
- inhibition at 5 min, 10 μM [3]: < 25%

Structure (SMILES): Oc1ccccc1Cc1ccccc1O [Compound A016, 2,2′-methylenediphenol]
- inhibition at 5 min, 1 μM [3]: < 25%
- inhibition at 5 min, 10 μM [3]: < 25%

Structure (SMILES): O=S(=O)(Nc1ccc2ccccc2c1Cc1c(O)ccc2ccccc12)c1ccccc1 [Compound A026, N-(1-((2-hydroxynaphthalen-1-yl)methyl)naphthalen-2-yl)benzenesulfonamide]
- inhibition at 5 min, 1 μM [1]: < 25%
- inhibition at 5 min, 10 μM [1]: 75 to 100%
- inhibition at 1 μM [2, 4]: < 25%
- inhibition at 10 μM [2, 4]: 25 to 50%
- inhibition at 5 min, 1 μM [3]: 75 to 100%
- inhibition at 5 min, 10 μM [3]: 75 to 100%

Structure (SMILES): Cc1cc2ccccc2c(Cc2c(O)ccc3ccccc23)c1O [Compound A031, 1-((2-hydroxynaphthalen-1-yl)methyl)-3-methylnaphthalen-2-ol]
- inhibition at 5 min, 1 μM [1]: < 25%
- inhibition at 5 min, 10 μM [1]: 25 to 50%
- inhibition at 1 μM [2, 4]: < 25%
- inhibition at 10 μM [2, 4]: 50 to 75%
- inhibition at 5 min, 1 μM [3]: < 25%
- inhibition at 5 min, 10 μM [3]: 50 to 75%

Structure (SMILES): COc1ccc2ccccc2c1C(O)c1c(OC)ccc2ccccc12 [Compound A040, bis(2-methoxynaphthalen-1-yl)methanol]
- inhibition at 5 min, 1 μM [3]: < 25%
- inhibition at 5 min, 10 μM [3]: 25 to 50%

Structure (SMILES): Oc1ccc2ccccc2c1Cc1cccc2ccccc12 [Compound A052, 1-(naphthalen-1-ylmethyl)naphthalen-2-ol]
- inhibition at 5 min, 1 μM [1]: < 25%
- inhibition at 5 min, 10 μM [1]: 75 to 100%
- inhibition at 1 μM [2, 4]: < 25%
- inhibition at 10 μM [2, 4]: 75 to 100%
- inhibition at 5 min, 1 μM [3]: 25 to 50%

Structure (SMILES): CCN(CC)CCOc1ccc2ccccc2c1Nc1c(OC)ccc2ccccc12 [Compound A111-I-1, 2-(2-(diethylamino)ethoxy)-N-(2-methoxynaphthalen-1-yl)naphthalen-1-amine]
- inhibition at 5 min, 1 μM [1]: < 25%
- inhibition at 1 μM [2, 4]: 75 to 100%
- inhibition at 10 μM [2, 4]: 75 to 100%
- inhibition at 5 min, 1 μM [3]: < 25%
- inhibition at 5 min, 10 μM [3]: 75 to 100%

Structure (SMILES): CCOc1ccc2ccccc2c1Cc1c(OCCN2CCCC2)ccc2ccccc12 [Compound A255, 1-(2-((1-((2-ethoxynaphthalen-1-yl)methyl)naphthalen-2-yl)oxy)ethyl)pyrrolidine]
- inhibition at 5 min, 1 μM [1]: < 25%
- inhibition at 5 min, 10 μM [1]: 75 to 100%
- inhibition at 1 μM [2, 4]: 75 to 100%
- inhibition at 10 μM [2, 4]: 75 to 100%

Structure (SMILES): CC(C)Oc1ccc2ccccc2c1Cc1c(OCCN2CCCC2)ccc2ccccc12 [Compound A256, 1-(2-((1-((2-isopropoxynaphthalen-1-yl)methyl)naphthalen-2-yl)oxy)ethyl)pyrrolidine]
- inhibition at 5 min, 1 μM [1]: < 25%
- inhibition at 5 min, 10 μM [1]: 75 to 100%
- inhibition at 1 μM [2, 4]: 50 to 75%
- inhibition at 10 μM [2, 4]: 75 to 100%

Structure (SMILES): COCCOc1ccc2ccccc2c1Cc1c(OCCN2CCCC2)ccc2ccccc12 [Compound A258, 1-(2-((1-((2-(2-methoxyethoxy)naphthalen-1-yl)methyl)naphthalen-2-yl)oxy)ethyl)pyrrolidine]
- inhibition at 5 min, 1 μM [1]: < 25%
- inhibition at 5 min, 10 μM [1]: 75 to 100%
- inhibition at 1 μM [2, 4]: 75 to 100%
- inhibition at 10 μM [2, 4]: 75 to 100%

Structure (SMILES): CN1CCC(COc2ccc3ccccc3c2Cc2c(O)ccc3ccccc23)C1 (centres unmarked) [Compound A262, 1-((2-((1-methylpyrrolidin-3-yl)methoxy)naphthalen-1-yl)methyl)naphthalen-2-ol]
- inhibition at 5 min, 1 μM [1]: < 25%
- inhibition at 5 min, 10 μM [1]: 75 to 100%
- inhibition at 1 μM [2, 4]: 75 to 100%
- inhibition at 10 μM [2, 4]: 75 to 100%

Structure (SMILES): COc1ccc2ccccc2c1Cc1c(OCC2CCNCC2)ccc2ccccc12 [Compound A271, 4-(((1-((2-methoxynaphthalen-1-yl)methyl)naphthalen-2-yl)oxy)methyl)piperidine]
- inhibition at 5 min, 1 μM [1]: 50 to 75%
- inhibition at 1 μM [2, 4]: 75 to 100%
- inhibition at 10 μM [2, 4]: 75 to 100%

Structure (SMILES): CCOCOc1ccc2ccccc2c1Cc1c(OCC2CCNCC2)ccc2ccccc12 [Compound A279, 4-(((1-((2-(ethoxymethoxy)naphthalen-1-yl)methyl)naphthalen-2-yl)oxy)methyl)piperidine]
- inhibition at 5 min, 1 μM [1]: < 25%
- inhibition at 5 min, 10 μM [1]: 75 to 100%
- inhibition at 1 μM [2, 4]: 75 to 100%
- inhibition at 10 μM [2, 4]: 75 to 100%

Structure (SMILES): CCN(CC)CC(=O)Nc1ccc2ccccc2c1Cc1c(OC)ccc2ccccc12 [Compound A284, 2-(diethylamino)-N-(1-((2-methoxynaphthalen-1-yl)methyl)naphthalen-2-yl)acetamide]
- inhibition at 5 min, 1 μM [1]: < 25%
- inhibition at 5 min, 10 μM [1]: < 25%
- inhibition at 1 μM [2, 4]: 25 to 50%

Structure (SMILES): Oc1ccc2ccccc2c1Cc1c(OCCC2CCNCC2)ccc2ccccc12 [Compound A286, 1-((2-(2-(piperidin-4-yl)ethoxy)naphthalen-1-yl)methyl)naphthalen-2-ol]
- inhibition at 5 min, 1 μM [1]: < 25%
- inhibition at 5 min, 10 μM [1]: 75 to 100%
- inhibition at 1 μM [2, 4]: 75 to 100%

Structure (SMILES): CCN(CC)CCOc1ccc2ccccc2c1Cc1c(OCc2ccccc2)ccc2ccccc12 [Compound A290, 2-((1-((2-(benzyloxy)naphthalen-1-yl)methyl)naphthalen-2-yl)oxy)-N,N-diethylethan-1-amine]
- inhibition at 5 min, 1 μM [1]: 25 to 50%
- inhibition at 5 min, 10 μM [1]: 50 to 75%
- inhibition at 1 μM [2, 4]: 75 to 100%
- inhibition at 10 μM [2, 4]: 75 to 100%

Structure (SMILES): c1ccc(COc2ccc3ccccc3c2Cc2c(OCCN3CCCC3)ccc3ccccc23)cc1 [Compound A291, 1-(2-((1-((2-(benzyloxy)naphthalen-1-yl)methyl)naphthalen-2-yl)oxy)ethyl)pyrrolidine]
- inhibition at 5 min, 1 μM [1]: < 25%
- inhibition at 1 μM [2, 4]: 75 to 100%

Structure (SMILES): COc1ccc2ccccc2c1Cc1c(COCCN2CCCC2)ccc2ccccc12 [Compound A296, 1-(2-((1-((2-methoxynaphthalen-1-yl)methyl)naphthalen-2-yl)methoxy)ethyl)pyrrolidine]
- inhibition at 5 min, 1 μM [1]: < 25%
- inhibition at 5 min, 10 μM [1]: 75 to 100%
- inhibition at 1 μM [2]: 75 to 100%
